The source of these data is patent publication US11992558B2, “Controlled release formulation comprising flavoxate” (priority 2018, dated 2024).

The structures appear in SMILES notation. Like-named read-outs stand apart in the source and are kept apart here.

The conditions of data set [1]: cited from earlier work.
A short description of data set [2]: Drug-excipient compatibility (Total RS). It counts as physicochemical. Here is the method: Experiments were conducted to ascertain compatibility of the drug with commonly used excipients.
A short description of data set [3]: Flow properties of drug powder. It counts as physicochemical. On the procedure: Tapped density • 2. Bulk density • 3. Compressibility Index and Hausner ratio • 4. Angle of repose Solubility: Flowability measures how uniformly the powder flows from the hopper into the tablet die and is an index of how well the tablet die will be filled to a constant volume. […] Similarly, the angle between the freestanding surface of a powder heap and horizontal plane is the angle of repose. […] flowability was less and could be improved with addition of lubricants during tablet-making. Results of tests to determine the Angle of repose (35°), Carr's index (33.3%), bulk density (0.236 gm/ml) and tapped density ([…]) indicate that the drug powder had poor flow properties.

Data set [4] in a line: pH-dependent aqueous solubility at ambient temperature. Format: physicochemical. Particulars: 20 °C. On the procedure:
(§1) Solubility of flavoxate hydrochloride was determined in various aqueous buffers, water, ethanol, acetone and ethyl ether at 20° C. and at ambient temperature (20 to 25° C.).

A short description of data set [5]: Solubility of flavoxate in various solvents at 20° C. Format: physicochemical. Here is the method:
as §1

Take `Cc1c(-c2ccccc2)oc2c(C(=O)O)cccc2c1=O` [MFCA, 3-methylflavone-8-carboxylic acid]: the “half-life t½” value in data set [1] (MFCA) is 3.5 h.
For the compound `Cc1c(-c2ccccc2)oc2c(C(=O)OCCN3CCCCC3)cccc2c1=O.Cl` [flavoxate, 2-piperidinoethyl-3-methylflavone 8-carboxylate hydrochloride], the “duration of therapeutic activity” value in data set [1] (in vivo) was 5 to 6 h. Moreover, the “free flavoxate in urine” value in data set [1] (in vivo) is “No free flavoxate was found”. Also, the “time of peak level of MFCA” value is “around two hours” in data set [1] (oral 400 mg dose) and 30 to 60 min in data set [1] (oral administration of 200 mg dose). Besides, the “dose excreted as MFCA within 12 hours” value in data set [1] (oral, within 12 hours) is “About 50%”. In addition, the “dose excreted as MFCA” value in data set [1] (urine, 24 hours, intravenous) was 47%. Also, the “Total R.S. (%) 30 D/40° C./75% RH*” value in data set [2] (30 days at 40° C. and 75% relative humidity) amounted to 0.04%. In data set [2] (initial), the “Total R.S. (%) Initial” value came out at 0.02%. Also, the Angle of repose in data set [3] is recorded as 35 °. For the same compound, the “Carr's index” value in data set [3] was 33.3%. For the same compound, the bulk density in data set [3] is given as 0.236 gm/ml. This compound also displayed a tapped density in data set [3] of 0.355 g/mL. Further, the solubility in data set [4] (aqueous buffer, 0.05N Phosphate Buffer, pH 2.5, 20 to 25° C.) was 7640 µg/mL; in data set [4] (aqueous buffer, 0.05N Phosphate Buffer, pH 4.5, 20 to 25° C.), 13700 µg/mL; in data set [4] (aqueous buffer, 0.05N Phosphate Buffer, pH 6.0, 20 to 25° C.), 15400 µg/mL; in data set [4] (aqueous buffer, 0.05N Phosphate Buffer, pH 6.8, 20 to 25° C.), 6170 µg/mL; in data set [4] (aqueous buffer, 0.05N Phosphate Buffer, pH 7.2, 20 to 25° C.), 1040 µg/mL; in data set [4] (aqueous buffer, 0.05N Phosphate Buffer, pH 7.5, 20 to 25° C.) it was 580 µg/mL. Besides, the solubility in data set [4] (simulated gastric fluid, 0.1N HCl, pH 1.2, 20 to 25° C.) was 570 µg/mL; in data set [4] (Water, pH 5.7, 20 to 25° C.), 11300 µg/mL; in data set [5] (Water, read-out: Solubility % w/v), 7500 µg/mL. Besides, the Solubility % w/v entry is given as “Insoluble” in data set [5] (Acetone); 2.50 % w/v in data set [5] (Chloroform); 0.20 % w/v in data set [5] (Ethanol); “Insoluble” in data set [5] (Ethyl Ether); 0.90 % w/v in data set [5] (Methanol).
